Data as given in a melting point compilation (Tetko et al.; mined from patent text by program, amines drawn as free bases though some values may be those of a salt).

SMILES	melting point [°C]
CC1(C)CC(OC(=O)c2ccccc2)CC(C)(C)N1CC#N	147
Cc1nc(C)c(Cl)c(NCc2ccc(Oc3ccc4ncc([N+](=O)[O-])n4n3)cn2)n1	194 to 198
Nc1nc(CCCc2ccccc2)nc2nc(-c3ccco3)nn12	164 to 167
CCOC(OCC)c1ccc(C(O)(c2ccc3nc(OC)cc(-c4cccc(Cl)c4)c3c2)c2cncn2C)cc1 (stereo unspecified)	80
Cc1ccnc2c1C(=NNC(=N)N)CC(c1cc(Cl)sc1Cl)C2 (stereo unspecified)	250 to 251
CCCOc1ccc([N+](=O)[O-])c(C)c1Cl	42 to 43
NC(=O)CCCSCc1nccc(NC(N)=NCC(F)(F)F)n1	126 to 128
Cc1ccc(Cl)c(Nc2ccccc2-c2noc(=O)[nH]2)c1Cl	209 to 210
N#Cc1ccc([C@H]2CC[C@H](C=O)CC2)cc1	57.1
Cn1cc(C2=CC(=O)NC2=O)c2ccccc21	229 to 231
CNC(=O)c1cnc(OCC(O)CNC(C)C)c(Cl)c1 (stereo unspecified)	130 to 132
Cc1c(NC(=O)CC(C)(C)C)cc2c(c1C)OC(C)(C)C2Nc1ccccc1OC(F)(F)F (stereo unspecified)	196 to 197
CCCCCCCCCCOc1ccc(-c2ccc(C#CCCC(C)O)cc2)cc1 (stereo unspecified)	97 to 99
Cc1noc(C)c1-c1ccccc1C=NC(c1ccccc1)c1ccccc1	165 to 167
CCOC(=O)c1ccc2[nH]c(C)c(SC)c2c1	127 to 130
O=C1CCC2CCCCC2N1 (stereo unspecified)	123 to 126
Cn1c(-c2cccc(-c3cc4ccccc4n3C)c2)cc2ccccc21	150

SMILES	melting point [°C]
CCOC(=O)c1c[nH]c2c(F)c(C)c(F)cc2c1=O	260 to 263
Cc1nc(-c2ccc(CCC3(O)CN4CCC3CC4)cc2)no1 (stereo unspecified)	165 to 167
CC1(c2ccccc2)SC(=S)N(Nc2ccccc2)C1=NO (stereo unspecified)	83 to 84
CCNC(=O)n1nc(Oc2ccc([N+](=O)[O-])c(OCC)c2)cc1C	110 to 112
CC1(C)OC(=O)C(C=Nc2cncc(Br)c2)C(=O)O1	200 to 202
CCOc1nc(N)nc(OC(F)(F)F)n1	69 to 71
C=CCCC(C#N)(C#N)Cc1ccc(Cl)cc1	63.7
COC(Cc1ccc(OCCc2nc(C(C)(C)C)oc2C)c2ccccc12)C(=O)O (stereo unspecified)	141 to 143
CN1CC(CCCl)Sc2ncccc2C1=O (stereo unspecified)	97 to 100
CC(C)(C)C(Cl)=NNc1ccc([N+](=O)[O-])cc1	94.5 to 95.5
COC(c1cc2c3c(c1)c(C)cc(=O)n3CC2)(C(F)(F)F)C(F)(F)F	242 to 243
Cc1cccc(N2CC(C)C(N)=N2)n1 (stereo unspecified)	181 to 185
CC(Br)C(Br)C(=O)NC(=O)Nc1ccc(Cl)c(Cl)c1 (stereo unspecified)	196 to 197
CSc1nn2c(N)cc(C)nc2c1S(=O)(=O)c1ccc(Br)cc1	> 230
Oc1ccc2c(c1)Nc1ccccc1S2	207 to 208
Cc1cc(C(=O)O)c(NC(=O)C(C)C)s1	160 to 162

More lines, now with the values ahead:

melting point [°C]	SMILES
166 to 167	Cc1c(NC(=O)c2ccc(OC[C@@H]3CCCO3)cc2)ccc2[nH]c(CNCC3CCOCC3)cc12
155	CCOC(=O)c1ccc(-c2ccc(OCCCN)c(-c3ccc4c(c3)C(C)(C)CCC4(C)C)c2)cc1
147 to 150	CCOc1cccc(SCC(=O)O)c1CC(=O)O
302	O=C(O)c1ccc(-c2nn(Cc3cccc(Cl)c3)c(=S)[nH]2)cc1
210 to 211	COc1ccc(NS(=O)(=O)c2ccc(N3CCNC3=O)cc2)cc1
152 to 155	O=C(c1ccc(F)cc1)C1CCN(CCCC2CCc3onc(-c4ccc(Cl)cc4)c3C2O)CC1 (stereo unspecified)
214 to 216	Cc1ccc(-c2ccc(Cl)c(C(=O)NCC34CC5CC(CC(C5)C3)C4)c2)c(C(=O)O)c1
133 to 135	CCN(CC)CC#CC(=O)Nc1ccc2ncc(C#N)c(Nc3cccc(Br)c3)c2c1
240 to 242	O=C(Nc1n[nH]c(=S)s1)N[C@@H](Cc1ccc(F)cc1)C(=O)N1CCN(c2ccccn2)CC1
185 to 186	CC(C)C(NC(=O)N1CCc2cc(S(=O)(=O)N3CCN(c4cccc(Cl)c4)CC3)ccc21)C(=O)O (stereo unspecified)
223 to 225	Cn1ncc2cc(/C=C/c3ccc(O)cc3)ccc2c1=O
196 to 197	O=C(O)C1CCc2c([nH]c3ccc(Cl)cc23)C1 (stereo unspecified)
217 to 218	CCC(=O)Nc1cc(C(=O)O)ccc1N1C(=O)CCC1(CO)CO
55 to 65	COc1cc2cc(C(=O)Nc3cc(OCc4ccccc4)c4ccccc4c3CCOC(C)=O)[nH]c2c(OC)c1OC
194 to 196	CC(C)(C)OC(=O)N1CCN(C(=O)NNC(=O)OCc2ccccc2)CC1
150 to 152	CCN(CC)C(=O)c1ccc2ccccc2c1-c1ccccc1C
154 to 155	CCCOC(=O)Nc1ccc(NCc2cc(Cl)cc(Cl)c2)cc1N
142	COc1ccc(-c2nc(N)ncc2-c2ccc(=O)[nH]n2)cc1
79 to 82	CN1C(=O)C2CCCCC2N=C1c1ccccc1 (stereo unspecified)

melting point [°C]	SMILES
161 to 163	CC(=O)NC[C@H]1CN(c2ccc(C3=CCCCO3)c(F)c2)C(=O)O1
265 to 267	CN1CCN(c2ccc3c(c2)NC(=O)C(C)(c2ccc(N)cc2)C3=O)CC1 (stereo unspecified)
140 to 146	O=C(OCC1c2ccccc2-c2ccc(S(=O)(=O)O)cc21)ON1C(=O)CCC1=O (stereo unspecified)
222 to 228	CC1(C)CCC(C)(C)c2cc(C3(c4ccc(C(=O)O)cc4)OCCO3)c(OCc3ccccc3)cc21
230 to 232	CS(=O)(=O)Nc1ccc(N2CCN(c3ccncc3)CC2)cc1
182	CCCc1nc2c(C)cc(C)nc2n1Cc1ccc(-c2ccccc2-c2c(O)c(=O)c2=O)cc1
308 to 309	Cc1cccc(C(=O)Nc2ccc(S(N)(=O)=O)cc2)c1SSc1c(C)cccc1C(=O)Nc1ccc(S(N)(=O)=O)cc1
182 to 183	Cc1ccc(NC(=O)NCC(=O)N(CC(=O)OC(C)(C)C)c2ccccc2C(=O)c2ccccc2)cc1
203 to 205	O=C1c2cc3nnn(Cc4cccnc4)c(=O)c3cc2OC2CCCN12 (stereo unspecified)
263	NS(=O)(=O)c1cnc(-c2cn(-c3nc(-c4ccc(Cl)cc4)cc(C(F)(F)F)n3)cn2)s1
158 to 160	CS(=O)(=O)Nc1cc(C(O)CNC2CCN(c3ccc(CC4SC(=O)N(CC(=O)O)C4=O)cc3)CC2)ccc1O (stereo unspecified)
> 250	O=C(O)C1=CSC2C(=Cc3ccc4nc5n(c4c3)CCCS5)C(=O)N12 (stereo unspecified)
165 to 166	CCCCCCOc1cc(C(=O)O)cc([N+](=O)[O-])c1C(=O)c1ccccc1
143 to 150	COc1cc2c(cc1OC)N(C(=O)OCc1ccccc1)C(C)C(=CN)C2=O (stereo unspecified)
270 to 280	O=C(CCNc1c(C(=O)O)[nH]c2cc(Cl)cc(Cl)c12)c1cccc(F)c1
168 to 169	CCCCS(=O)(=O)NC(=O)c1ccc(C(=O)NCCO)nc1
264	CCn1nc(C(C)(C)C)c2c1C(=O)NCC(c1ccc(O)cc1)=N2
178 to 179	CCOc1cc(N(Cc2cccnc2)c2ccc(C(=O)O)cc2)ccc1OC(F)F
84 to 86	CSc1ccc(COC(=O)OCc2ccc([N+](=O)[O-])cc2)cc1
